Test results as given in ChEMBL document CHEMBL4325847, “Dihydropyrazothiazole derivatives as potential MMP-2/MMP-8 inhibitors for cancer therapy” (Bioorg Med Chem Lett, 2018).

Experiments:
MCF7 [1] = experiment: Antiproliferative activity against human MCF7 cells after 48 hrs by MTT assay; assay type: functional, cell-based; details: MCF7, 48 h
HepG2 = experiment: Antiproliferative activity against human HepG2 cells after 48 hrs by MTT assay; assay type: functional, cell-based; details: HepG2, 48 h
HeLa = experiment: Antiproliferative activity against human HeLa cells after 48 hrs by MTT assay; assay type: functional, cell-based
[2] = biological target: 72 kDa type IV collagenase (Homo sapiens, UniProt P08253); experiment: Inhibition of recombinant human MMP-2 preincubated for 10 mins followed by Mca-PLGL-Dpa-AR-NH2 substrate addition and measured for 5 mins by fluorescence assay
Chain of 72 kDa type IV collagenase (P08253 whole entry): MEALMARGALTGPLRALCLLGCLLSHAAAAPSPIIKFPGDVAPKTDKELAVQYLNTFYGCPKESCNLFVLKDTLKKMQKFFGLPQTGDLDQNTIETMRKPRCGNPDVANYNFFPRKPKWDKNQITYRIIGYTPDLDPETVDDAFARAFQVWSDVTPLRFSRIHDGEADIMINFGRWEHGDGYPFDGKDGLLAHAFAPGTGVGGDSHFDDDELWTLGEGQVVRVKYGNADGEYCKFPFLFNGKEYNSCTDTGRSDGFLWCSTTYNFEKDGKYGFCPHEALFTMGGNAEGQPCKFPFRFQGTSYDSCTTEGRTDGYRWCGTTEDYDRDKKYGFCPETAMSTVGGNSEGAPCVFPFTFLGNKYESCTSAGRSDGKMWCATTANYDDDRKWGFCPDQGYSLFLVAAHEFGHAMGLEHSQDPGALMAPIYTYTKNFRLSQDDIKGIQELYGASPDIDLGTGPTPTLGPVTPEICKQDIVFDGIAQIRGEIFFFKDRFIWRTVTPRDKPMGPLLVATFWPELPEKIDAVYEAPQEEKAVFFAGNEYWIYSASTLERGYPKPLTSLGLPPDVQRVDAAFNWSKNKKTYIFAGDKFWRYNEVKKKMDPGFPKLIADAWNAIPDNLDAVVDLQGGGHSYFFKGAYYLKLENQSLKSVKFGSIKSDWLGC

Neutrophil collagenase = Neutrophil collagenase (Homo sapiens, UniProt P22894); experiment: Inhibition of recombinant human MMP-8 using Mca-PLGL-Dpa-AR-NH2 as substrate preincubated for 10 mins followed by substrate addition and measured for 5 mins by fluorescence assay
Chain of Neutrophil collagenase (P22894 whole entry): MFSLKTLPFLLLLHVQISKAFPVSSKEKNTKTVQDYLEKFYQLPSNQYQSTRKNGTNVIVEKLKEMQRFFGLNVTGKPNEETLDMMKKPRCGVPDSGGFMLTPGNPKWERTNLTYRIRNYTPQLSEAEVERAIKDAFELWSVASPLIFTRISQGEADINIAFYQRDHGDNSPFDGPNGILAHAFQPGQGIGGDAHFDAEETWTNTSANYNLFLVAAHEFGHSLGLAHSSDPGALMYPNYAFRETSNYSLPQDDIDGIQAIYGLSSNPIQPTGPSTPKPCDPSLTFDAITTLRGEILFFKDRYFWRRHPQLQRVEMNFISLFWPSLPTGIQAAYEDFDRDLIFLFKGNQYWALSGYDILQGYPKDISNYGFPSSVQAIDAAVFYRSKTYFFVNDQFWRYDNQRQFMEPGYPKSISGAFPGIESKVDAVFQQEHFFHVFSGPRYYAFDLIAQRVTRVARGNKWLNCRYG

HEK-293T = experiment: Cytotoxicity against human 293T cells by MTT assay; assay type: cell-based
L02 = experiment: Cytotoxicity against human LO2 cells by MTT assay; assay type: cell-based
MCF7 [3] = experiment: Induction of apoptosis in human MCF7 cells assessed as live cells at 2 uM after 48 hrs by Annexin V-FITC/propidium iodide staining-based flow cytometric analysis (reference value: 91.8%); assay type: functional
MCF7 [4] = experiment: Induction of apoptosis in human MCF7 cells assessed as early apoptotic cells at 2 uM after 48 hrs by Annexin V-FITC/propidium iodide staining-based flow cytometric analysis (reference value: 2.54%); assay type: functional
MCF7 [5] = experiment: Induction of apoptosis in human MCF7 cells assessed as late apoptotic cells at 2 uM after 48 hrs by Annexin V-FITC/propidium iodide staining-based flow cytometric analysis (reference value: 5.33%); assay type: functional
MCF7 [6] = experiment: Induction of apoptosis in human MCF7 cells assessed as necrotic cells at 2 uM after 48 hrs by Annexin V-FITC/propidium iodide staining-based flow cytometric analysis (reference value: 0.343%); assay type: functional
MCF7 [7] = experiment: Induction of apoptosis in human MCF7 cells assessed as live cells at 8 uM after 48 hrs by Annexin V-FITC/propidium iodide staining-based flow cytometric analysis (reference value: 91.8%); assay type: functional
MCF7 [8] = experiment: Induction of apoptosis in human MCF7 cells assessed as early apoptotic cells at 8 uM after 48 hrs by Annexin V-FITC/propidium iodide staining-based flow cytometric analysis (reference value: 2.54%); assay type: functional
MCF7 [9] = experiment: Induction of apoptosis in human MCF7 cells assessed as late apoptotic cells at 8 uM after 48 hrs by Annexin V-FITC/propidium iodide staining-based flow cytometric analysis (reference value: 5.33%); assay type: functional
MCF7 [10] = experiment: Induction of apoptosis in human MCF7 cells assessed as necrotic cells at 8 uM after 48 hrs by Annexin V-FITC/propidium iodide staining-based flow cytometric analysis (reference value: 0.343%); assay type: functional
MCF7 [11] = experiment: Induction of apoptosis in human MCF7 cells assessed as live cells at 32 uM after 48 hrs by Annexin V-FITC/propidium iodide staining-based flow cytometric analysis (reference value: 91.8%); assay type: functional
MCF7 [12] = experiment: Induction of apoptosis in human MCF7 cells assessed as early apoptotic cells at 32 uM after 48 hrs by Annexin V-FITC/propidium iodide staining-based flow cytometric analysis (reference value: 2.54%); assay type: functional
MCF7 [13] = experiment: Induction of apoptosis in human MCF7 cells assessed as late apoptotic cells at 32 uM after 48 hrs by Annexin V-FITC/propidium iodide staining-based flow cytometric analysis (reference value: 5.33%); assay type: functional
MCF7 [14] = experiment: Induction of apoptosis in human MCF7 cells assessed as necrotic cells at 32 uM after 48 hrs by Annexin V-FITC/propidium iodide staining-based flow cytometric analysis (reference value: 0.343%); assay type: functional
MCF7 [15] = experiment: Induction of apoptosis in human MCF7 cells after 48 hrs by Annexin V-FITC/propidium iodide staining-based flow cytometric analysis; assay type: functional, cell-based

Row | Structure (SMILES) | IC50 (MCF7 [1]) [µM] | IC50 (HepG2) [µM] | IC50 (HeLa) [µM] | IC50 ([2]; read-out: IC50) [µM] | IC50 (Neutrophil collagenase) [µM] | CC50 (HEK-293T) [µM] | CC50 (L02) [µM] | other results
1 | COc1ccc(C2=NN(c3nc(-c4cccc(Br)c4)cs3)C(c3ccccc3O)C2)cc1 (configuration not stated) | 4.42 | 7.55 | 13 | 14 | 48.1 | 24.5 | 68.7 | 
2 | C[C@@]1(O)c2cccc(O)c2C(=O)C2=C(O)[C@]3(O)C(=O)C(C(N)=O)=C(O)C[C@@H]3C[C@@H]21 |  |  |  | 1.29 | 21.9 |  |  | 
3 | COc1ccc(C2=NN(c3nc(-c4ccc(C(F)(F)F)cc4)cs3)C(c3ccccc3O)C2)cc1 (configuration not stated) | 11.1 | 12 | 29.3 | 58.8 | > 100 | 45.4 | 45.6 | IC50 ([2]; read-out: pIC50 (converted)): 57.5 µM
4 | COc1ccc(C2=NN(c3nc(-c4ccc(OC)cc4)cs3)C(c3ccccc3O)C2)cc1 (configuration not stated) | 3.17 | 15.3 | 16.3 | 11.7 | 65.2 | 63 | 49.7 | 
5 | Cc1ccc(-c2cc(C(F)(F)F)nn2-c2ccc(S(N)(=O)=O)cc2)cc1 [CELECOXIB] | 6.96 | 0.78 |  |  |  | 55.8 | 78.2 | 
6 | COc1ccc(C2=NN(c3nc(-c4cccc(OC)c4)cs3)C(c3ccccc3O)C2)cc1 (configuration not stated) | 3.72 | 12.6 | 13.7 | 2.8 | 25.6 | 35.2 | 56.2 | 
7 | COc1ccc(C2=NN(c3nc(-c4ccc(Br)cc4)cs3)C(c3ccccc3O)C2)cc1 (configuration not stated) | 20.1 | 9.52 | 28.1 | 16.9 | 36.8 | 71.9 | > 100 | 
8 | Oc1ccccc1C1CC(c2ccc(F)cc2)=NN1c1nc(-c2ccc(C(F)(F)F)cc2)cs1 (configuration not stated) | 2.89 | 10.5 | 11.7 | 58.4 | 100 | 34.8 | 66.1 | 

The next lines start with results.

Row | IC50 (MCF7 [1]) [µM] | IC50 (HepG2) [µM] | IC50 (HeLa) [µM] | IC50 ([2]; read-out: IC50) [µM] | IC50 (Neutrophil collagenase) [µM] | Structure (SMILES) | CC50 (HEK-293T) [µM] | CC50 (L02) [µM] | other results
9 | 3.24 | 25 | 13.1 | 9.65 | 39.7 | Oc1ccccc1C1CC(c2ccc(F)cc2)=NN1c1nc(-c2ccccc2)cs1 (configuration not stated) | 50.7 | 85.6 | 
10 | 2.08 | 9.9 | 5.05 | 21.6 | 62.5 | Oc1ccccc1C1CC(c2ccccc2)=NN1c1nc(-c2ccccc2)cs1 (configuration not stated) | 55.1 | 88.3 | IC50 ([2]; read-out: pIC50 (converted)): 21.4 µM
11 | 8.01 | 18.4 | 10.8 | 16.2 | 60.1 | Oc1ccccc1C1CC(c2ccc(F)cc2)=NN1c1nc(-c2cccc(Br)c2)cs1 (configuration not stated) | 70.1 | 59.4 | 
12 | 3.5 | 8.85 | 2.25 | 48.2 | > 100 | Oc1ccccc1C1CC(c2ccccc2)=NN1c1nc(-c2ccc(C(F)(F)F)cc2)cs1 (configuration not stated) | 25.4 | 42.8 | 
13 | 4.56 | 18.2 | 17 | 10.8 | 28.2 | COc1ccc(-c2csc(N3N=C(c4ccc(F)cc4)CC3c3ccccc3O)n2)cc1 (configuration not stated) | 59.4 | 85.6 | 
14 | 5.3 | 10.9 | 2.73 | 8.31 | 35.8 | COc1cccc(-c2csc(N3N=C(c4ccccc4)CC3c3ccccc3O)n2)c1 (configuration not stated) | 46.6 | 57.9 | 
15 | 1.03 | 11.9 | 8.64 | 11.2 | 48.9 | COc1ccc(-c2csc(N3N=C(c4ccccc4)CC3c3ccccc3O)n2)cc1 (configuration not stated) | 57.1 | 72.4 | Activity (MCF7 [3]): 73%; Activity (MCF7 [4]): 4.44%; Activity (MCF7 [5]): 22.4%; Activity (MCF7 [6]): 0.216%; Activity (MCF7 [7]): 53.7%; Activity (MCF7 [8]): 2.57%; Activity (MCF7 [9]): 43.6%; Activity (MCF7 [10]): 0.207%; Activity (MCF7 [11]): 36.6%; Activity (MCF7 [12]): 2.29%; Activity (MCF7 [13]): 60.9%; Activity (MCF7 [14]): 0.198%; Activity (MCF7 [15]): Dose-dependent effect
16 | 1.47 | 15 | 2.7 | 12.3 | 48.8 | Oc1ccccc1C1CC(c2ccc(F)cc2)=NN1c1nc(-c2ccc(Br)cc2)cs1 (configuration not stated) | 52 | 48.2 | 
17 | 1.07 | 21.7 | 5.51 | 28.3 | 86.5 | Oc1ccccc1C1CC(c2ccccc2)=NN1c1nc(-c2cccc(Br)c2)cs1 (configuration not stated) | 41.8 | 42.3 | 
18 | 2.39 | 23.3 | 18.2 | 12.9 | 30.5 | COc1ccc(C2=NN(c3nc(-c4ccccc4)cs3)C(c3ccccc3O)C2)cc1 (configuration not stated) | 64.1 | 75.2 | 
19 | 2.14 | 17.6 | 4.88 | 34.8 | 75.6 | Oc1ccccc1C1CC(c2ccccc2)=NN1c1nc(-c2ccc(Br)cc2)cs1 (configuration not stated) | 52.8 | 65.2 | 
20 | 4.01 | 17.8 | 9.73 | 6.7 | 36.4 | COc1cccc(-c2csc(N3N=C(c4ccc(F)cc4)CC3c3ccccc3O)n2)c1 (configuration not stated) | 39.1 | 43.8 | 
